From patent US9828339B2, “Biphenyl derivatives and methods for preparing same” (DONG-A ST CO., LTD, priority 2013, dated 2017)

What was measured:
[1] = target: T1, human muscarinic M3 receptor (Homo sapiens (Human), UniProt P20309); assay: Binding assay on human muscarinic M3 receptor ([3H]-methyl scopolamine displacement); details: membranes overexpressing human M3 receptor, Ki from IC50 by Cheng-Prusoff, read-out: Binding Affinity to M3 Receptor, Ki
How it was run: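 Displacement of [3H]-methyl scopolamine from membranes overexpressing human M3, in Tris-HCl, 25 °C, 120 min; filter-bound radioactivity counted. Nonspecific binding with 5 μM atropine; Ki from IC50 via Cheng-Prusoff.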

[2] = tested on: rhythmic bladder contractions; assay: Rhythmic bladder contractions in rats (in vivo); parameters: species or system rat; details: 0.3 mpk, intravenous, female Sprague-Dawley rats; amplitude reduction of bladder contractions
Source text: [Experimental Example 3] Experiment on Rhythmic Bladder Contractions in Rats (In Vivo)
Female Sprague-Dawley rat was halothane-anesthetized, and a polyethylene catheter was inserted through urethra lay down straight and fixed. Urine in bladder was excreted through the catheter by gently massaging abdomen of the rat, and then removed. A three-way stopcock was connected to the catheter and a pressure transducer was connected to one side of the three-way stopcock to measure pressure, and a syringe was installed at the other side to inject 37° C. of saline solution. The saline solution was slowly injected until regular bladder contractions occurred repeatedly. When regular bladder contractions occurred stably, test compounds were administered intravenously through the tail vein. Inhibitory effect of the test compounds was evaluated by measuring degree of amplitude reduction of bladder contractions.

[3] = target: T1, human muscarinic M3 receptor; assay: Antagonism assay on human muscarinic M3 receptor (carbachol-induced intracellular calcium, FLIPR Calcium 5, transfected Cos-7 cells); type: cell-based; details: functional inhibitory constant; carbachol-induced intracellular calcium in Cos-7 cells transfected with human M3 receptor
Experimental: [Experimental Example 2] Antagonism Assay on Human Muscarinic M3 Receptor
The antagonism assay for various compounds of the present invention was conducted on antagonism to human M3 receptor in Cos-7 cells that was transfected with plasmid coding human muscarinic M3 receptor. Test compounds in various concentrations were pre-treated to the cells for 3 minutes, and then the changes of intracellular calcium were measured after treating the same with carbachol (i.e. muscarinic receptor agonist). The FLIPR® Calcium 5 assay (Molecular Devices) and Flex3 device (Molecular Devices) were used to measure concentration of calcium. Amounts of calcium before and after carbachol treatment were set as 0% and 100% respectively. Inhibition rates (%) by the compounds for increase in intracellular calcium by carbachol were calculated. The antagonistic potency of the test compounds on human muscarinic M3 receptor was calculated as the functional inhibitory constant (Ki), which can be calculated from concentration (IC50) of compound inhibiting 50% of activity of carbachol according to Cheng and Prusoff equation.

T1 sequence (P20309 whole entry): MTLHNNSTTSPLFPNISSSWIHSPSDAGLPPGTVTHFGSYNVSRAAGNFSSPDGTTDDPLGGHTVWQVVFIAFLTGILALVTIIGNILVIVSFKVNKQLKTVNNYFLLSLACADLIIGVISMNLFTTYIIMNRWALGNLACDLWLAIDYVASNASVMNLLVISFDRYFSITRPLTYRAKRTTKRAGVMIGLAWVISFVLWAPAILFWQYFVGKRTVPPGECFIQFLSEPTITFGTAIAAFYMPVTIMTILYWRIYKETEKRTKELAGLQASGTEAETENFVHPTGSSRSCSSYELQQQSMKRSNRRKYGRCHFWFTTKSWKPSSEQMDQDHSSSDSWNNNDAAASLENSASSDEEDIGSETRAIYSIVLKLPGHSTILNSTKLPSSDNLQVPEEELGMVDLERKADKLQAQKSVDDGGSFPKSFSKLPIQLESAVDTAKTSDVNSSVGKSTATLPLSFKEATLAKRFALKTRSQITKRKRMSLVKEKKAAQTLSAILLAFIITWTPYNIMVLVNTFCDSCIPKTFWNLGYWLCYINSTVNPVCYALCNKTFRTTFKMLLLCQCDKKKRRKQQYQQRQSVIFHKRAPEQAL

SMILES | Ki [1] [nM] | Inhibition of Rhythmic bladder contraction in rats [2] [%] | Ki [3] [nM]
CN1CCCC1COC(=O)Nc1ccccc1-c1ccc(F)cc1 (stereo in doubt) [Example 99, (S)-(1-methylpyrrolidin-2-yl)methyl (4′-fluoro-[1,1′-biphenyl]-2-yl)carbamate] | 8.1 | 16.3 ± 1.0 | –
CN1CCCC1CCOC(=O)Nc1ccccc1-c1ccc(F)cc1 (centres unmarked) [Example 1, 2-(1-methylpyrrolidin-2-yl)ethyl(4′-fluoro-[1,1′-biphenyl]-2-yl)carbamate] | 4.42 | 26.1 ± 5.1 | –
CN1CCCC1CCOC(=O)Nc1ccccc1-c1cc(F)c(F)c(F)c1 (centres unmarked) [Example 3, 2-(1-methylpyrrolidin-2-yl)ethyl(3′,4′,5′-trifluoro-[1,1′-biphenyl]-2-yl)carbamate] | 11.6 | 15.9 ± 0.9 | –
CN1CCCC1CCOC(=O)Nc1ccccc1-c1ccccc1 (centres unmarked) [Example 6, 2-(1-methylpyrrolidin-2-yl)ethyl[1,1′-biphenyl]-2-ylcarbamate] | 2.47 | 28.5 ± 4.6 | –
CN1CCCC1CCOC(=O)Nc1ccccc1-c1cc(Cl)cc(Cl)c1 (centres unmarked) [Example 9, 2-(1-methylpyrrolidin-2-yl)ethyl(3′,5′-dichloro-[1,1′-biphenyl]-2-yl)carbamate] | 9.1 | 9.6 ± 1.6 | –
CN1CCCC1CCOC(=O)Nc1ccc(F)cc1-c1cccc(Cl)c1 (centres unmarked) [Example 17, 2-(1-methylpyrrolidin-2-yl)ethyl(3′-chloro-5-fluoro-[1,1′-biphenyl]-2-yl)carbamate] | 1 | 27.9 ± 6.1 | –
Cc1ccc(NC(=O)OCCC2CCCN2C)c(-c2ccccc2)c1 (centres unmarked) [Example 26, 2-(1-methylpyrrolidin-2-yl)ethyl(5-methyl-[1,1′-biphenyl]-2-yl)carbamate] | 18.5 | 11.0 ± 2.5 | –
CN1CCCC1CCOC(=O)Nc1ccc(F)cc1-c1ccc(Cl)c(Cl)c1 (centres unmarked) [Example 43, 2-(1-methylpyrrolidin-2-yl)ethyl(3′,4′-dichloro-5-fluoro-[1,1′-biphenyl]-2-yl)carbamate] | 1.48 | 8.9 ± 2.3 | –
O=C(Nc1ccccc1-c1ccccc1)OC[C@@H]1CCNC1 [Example 78, (R)-pyrrolidin-3-ylmethyl [1,1′-biphenyl]-2-ylcarbamate] | 4.62 | 17.9 ± 2.1 | –
CN1CC[C@H](COC(=O)Nc2ccc(F)cc2-c2ccccc2)C1 [Example 93, (S)-(1-methylpyrrolidin-3-yl)methyl (5-fluoro-[1,1′-biphenyl]-2-yl)carbamate] | 4.12 | 27.3 ± 1.9 | –
Cc1cccc(-c2ccccc2NC(=O)OC[C@H]2CCN(C)C2)c1 [Example 101, (S)-(1-methylpyrrolidin-3-yl)-methyl(3′-methyl-[1,1′-biphenyl]-2-yl)carbamate] | 3.79 | 20.1 ± 1.7 | –
CCN1CCC[C@H]1COC(=O)Nc1ccccc1-c1ccccc1 [Example 106, (S)-(1-ethylpyrrolidin-2-yl)methyl [1,1′-biphenyl]-2-ylcarbamate] | 0.8 | 32.7 ± 5.2 | –
CN1CC[C@H](COC(=O)Nc2ccc(F)cc2-c2cccc(F)c2)C1 [Example 108, (S)-(1-methylpyrrolidin-3-yl)-methyl(3′,5-difluoro-[1,1′-biphenyl]-2-yl)carbamate] | 3.95 | 18.1 ± 1.4 | –
CN1CCC[C@@H]1COC(=O)Nc1ccccc1-c1ccccc1 [Example 109, (R)-(1-methylpyrrolidin-2-yl)-methyl [1,1′-biphenyl]-2-ylcarbamate] | 5.33 | 18.1 ± 1.7 | –
CC(C)N1CCC[C@H]1COC(=O)Nc1ccccc1-c1ccccc1 [Example 112, (S)-(1-isopropylpyrrolidin-2-yl)-methyl [1,1′-biphenyl]-2-ylcarbamate] | 3.77 | 34.8 ± 2.9 | –
CN1CC[C@H](COC(=O)Nc2ccccc2-c2ccc(F)c(Cl)c2)C1 [Example 121, (S)-(1-methylpyrrolidin-3-yl)methyl(3′-chloro-4′-fluoro-[1,1′-biphenyl]-2-yl)carbamate] | 1.75 | 31.4 ± 6.1 | –

SMILES | Ki [1] [nM] | Inhibition of Rhythmic bladder contraction in rats [2] [%] | Ki [3] [nM]
CN1CC[C@@H](COC(=O)Nc2ccccc2-c2cc(Cl)ccc2F)C1 [Example 159, (R)-(1-methylpyrrolidin-3-yl)methyl(3′-chloro-6′-fluoro-[1,1′-biphenyl]-2-yl)carbamate] | 5.13 | – | 0.46
CN1CCC[C@H]1COC(=O)Nc1ccccc1-c1cccc(F)c1 [Example 160, (S)-(1-methylpyrrolidin-2-yl)methyl(3′-fluoro-[1,1′-biphenyl]-2-yl)carbamate] | 4.29 | 15.5 ± 2.4 | –
CN1CCC[C@H]1COC(=O)Nc1ccccc1-c1cccc(Cl)c1 [Example 165, (S)-(1-methylpyrrolidin-2-yl)methyl(3′-chloro-[1,1′-biphenyl]-2-yl)carbamate] | 0.63 | 34.5 ± 2.5 | –
CN1CCC[C@H]1COC(=O)Nc1ccc(F)cc1-c1cc(F)cc(F)c1 [Example 172, (S)-(1-methylpyrrolidin-2-yl)methyl(3′,5,5′-trifluoro-[1,1′-biphenyl]-2-yl)carbamate] | 6.15 | 12.4 ± 2.7 | –
CN1CCC[C@H]1COC(=O)Nc1ccc(F)cc1-c1ccc(Cl)c(Cl)c1 [Example 177, (S)-(1-methylpyrrolidin-2-yl)methyl (3′,4′-dichloro-5-fluoro-[1,1′-biphenyl]-2-yl)carbamate] | 6.32 | 11.3 ± 2.2 | –
CN1CCC[C@H]1COC(=O)Nc1ccc(F)cc1-c1cccc(C(F)(F)F)c1 [Example 180, (S)-(1-methylpyrrolidin-2-yl)methyl(5-fluoro-3′-(trifluoromethyl)-[1,1′-biphenyl]-2-yl)carbamate] | 9.15 | 6.3 ± 1.3 | –
CN1CCCC1CCOC(=O)Nc1ccccc1-c1ccc(F)cc1F (centres unmarked) [Example 183, 2-(1-Methylpyrrolidin-2-yl)ethyl (2′,4′-difluoro-[1,1′-biphenyl]-2-yl)carbamate] | 18.9 | – | 2.57
CN1CCCC1CCOC(=O)Nc1ccccc1-c1cc(Cl)ccc1F (centres unmarked) [Example 186, 2-(1-Methylpyrrolidin-2-yl)ethyl (5′-chloro-2′-fluoro-[1,1′-biphenyl]-2-yl)carbamate] | 4.68 | – | 0.34
CN1CCC[C@H]1COC(=O)Nc1ccccc1-c1ccccc1F [Example 187, (S)-(1-methylpyrrolidin-2-yl)methyl(2′-fluoro-[1,1′-biphenyl]-2-yl)carbamate] | 10.7 | – | 0.48
CN1CCC[C@H]1COC(=O)Nc1ccccc1-c1ccc(F)cc1F [Example 188, (S)-(1-methylpyrrolidin-2-yl)methyl(2′,4′-difluoro-[1,1′-biphenyl]-2-yl)carbamate] | 13.7 | – | 2.23
CN1CCC[C@H]1COC(=O)Nc1ccccc1-c1cc(Cl)ccc1F [Example 190, (S)-(1-methylpyrrolidin-2-yl)methyl(3′-chloro-6′-fluoro-[1,1′-biphenyl]-2-yl)carbamate] | 2.17 | – | 0.95
CCN1CC[C@@H](COC(=O)Nc2ccc(F)cc2-c2ccc(F)c(Cl)c2)C1 [Example 196, (R)-(1-ethylpyrrolidin-3-yl)methyl (3′-chloro-4′,5-difluoro-[1,1′-biphenyl]-2-yl)carbamate] | 7.67 | – | 1.54
CN1CCC[C@H]1COC(=O)Nc1ccc(F)cc1-c1ccc(F)c(Cl)c1 [Example 211, (S)-(1-methylpyrrolidin-2-yl)methyl(3′-chloro-4′,5-difluoro-[1,1′-biphenyl]-2-yl)carbamate] | 9.91 | – | 10
COc1ccc(NC(=O)OC[C@@H]2CCCN2C)c(-c2cccc(Cl)c2)c1 [Example 224, (S)-(1-methylpyrrolidin-2-yl)methyl(3′-chloro-5-methoxy-[1,1′-biphenyl]-2-yl)carbamate] | 15.1 | – | 7.5
COc1ccc(NC(=O)OC[C@@H]2CCCN2C)c(-c2cc(Cl)cc(Cl)c2)c1 [Example 226, (S)-(1-methylpyrrolidin-2-yl)methyl (3′,5′-dichloro-5-methoxy-[1,1′-biphenyl]-2-yl)carbamate] | 16.7 | – | 4.99
